Source: patent US5736510A, “Antibiotics 10381v, w, x,y, z1, z2, pre-b and t” (priority 1996, dated 1998)
Like-named read-outs stand apart in the source and are kept apart here.

Legend:
Format in all cases: cell-based
[1] = test system: B. thetaiotaomicron; settings: strain UC9014; for Minimal Inhibitory Concentration (bioactivity data): Table IV (separate study)
Description: (§1) The assay measures the ability of a compound to inhibit the growth of certain types of anaerobic bacteria which normally inhabit the gut of poultry, swine or cattle.
(§2) Two mg/ml solutions of the drugs to be tested are made in 10% v/v ethanol/water. This stock is then diluted to one mg per ml and then further diluted through a series of ten-two fold dilutions. At each concentration an aliquot is placed in a sterile petri plate. Nine volumes of molten agar are then added to each plate, mixed and allowed to harden at room temperature. These plates are then transferred to a Coy chamber and allowed to dry and equilibrate with the oxygen free atmosphere.
(§3) Organisms used for MIC testing are inoculated into broth media, and incubated 18-24 h at 39° C. prior to use. The cultures are then diluted to equal the turbidity of a 0.5 MacFarland barium sulfate standard, except for the porcine isolates P108-3C1, P105-1C3 and P105-1C4 which are diluted 1:1. All inoculations and dilutions are performed in the anaerobic chamber using broth media and syringe transfer through the butyl robber stoppers.
(§4) Freshly prepared and diluted cultures are loaded into the wells of a Steers replicator device. This apparatus can dispense ca 10 μl of each of 32 cultures onto the surface of the preincubated agar plates. One hour after the inoculation, the inoculum will have been absorbed and the plates are inverted and incubated at 38°-39° C. for 48 h. Plates are then removed from the chamber and the MIC for the test compounds determined. MIC's are reported as the lowest concentration of a compound which prevented detectable growth of a test organism on the agar plates. […] Thus, each set of test plates yields individual MIC values for each of the 32 test organisms.

[2] = test system: S. ruminantium; settings: for Minimal Inhibitory Concentration (bioactivity data): Table IV (separate study); for M.I.C.: Table III, mass basis, no correction for purity
[3] = test system: R. flavefaciens; settings: for Minimal Inhibitory Concentration (bioactivity data): Table IV (separate study); for M.I.C.: Table III, mass basis, no correction for purity
[4] = test system: anaerobic bacteria which normally inhabit the gut of poultry, swine or cattle; test: in vitro MIC assay, overall comparison of components across the test organisms; settings: conclusion from Tables III and IV
Description: as §1, §2, §3, §4

[5] = test system: P. ruminicola; settings: strain 118B; for Minimal Inhibitory Concentration (bioactivity data): Table IV (separate study)
[6] = test system: E. lentum; settings: strain L-34; Table IV (separate study)
[7] = test system: S. hyodysenteriae; parameters: unit not given here; settings: Table IV (separate study)
Description: as §1, §2, §3, §4

[8] = test system: S. bovis; settings: strain JB1; for Minimal Inhibitory Concentration (bioactivity data): Table IV (separate study)
[9] = test system: B. fragilis; settings: strain UC9370; for Minimal Inhibitory Concentration (bioactivity data): Table IV (separate study)
[10] = test system: B. fibrisolvens; settings: for Minimal Inhibitory Concentration (bioactivity data): Table IV (separate study); for M.I.C.: Table III, mass basis, no correction for purity
[11] = test system: F. necrophorum; settings: for Minimal Inhibitory Concentration (bioactivity data): Table IV (separate study); for M.I.C.: Table III, mass basis, no correction for purity
[12] = test system: R. amylophilus; settings: strain H18; for Minimal Inhibitory Concentration (bioactivity data): Table IV (separate study)
[13] = test system: S. faecalis; settings: for Minimal Inhibitory Concentration (bioactivity data): Table IV (separate study); for M.I.C.: Table III, mass basis, no correction for purity
[14] = test system: L. multiparus; settings: strain 40; for Minimal Inhibitory Concentration (bioactivity data): Table IV (separate study)
[15] = test system: M. elsdenii; settings: strain B159; for Minimal Inhibitory Concentration (bioactivity data): Table IV (separate study)
[16] = test system: E. ruminantium; settings: strain GA195; for Minimal Inhibitory Concentration (bioactivity data): Table IV (separate study)
[17] = test system: C. perfringens; parameters: Minimal Inhibitory Concentration (bioactivity data): unit not given here; settings: for Minimal Inhibitory Concentration (bioactivity data): Table IV (separate study); for M.I.C.: Table III, mass basis, no correction for purity
[18] = Table III, mass basis, no correction for purity

Structure (SMILES): C=C1NC(=O)c2nc(oc2C)C(=CC)NC(=O)c2csc(n2)C(OC)NC(=O)c2nc(oc2C)C(=CC(C)O)NC(=O)C(C(C)O)NC(=O)c2csc(n2)-c2ccc(C(N)=O)nc2-c2coc(n2)C(=C)NC1=O (centres unmarked) [Antibiotic 10381v]
- Minimal Inhibitory Concentration (bioactivity data) [1]: > 100
- Minimal Inhibitory Concentration (bioactivity data) ([2]; strain GA31): 25.0
- Minimal Inhibitory Concentration (bioactivity data) ([2]; strain GA192): 100
- Minimal Inhibitory Concentration (bioactivity data) ([3]; strain C94): 25.0
- Minimal Inhibitory Concentration (bioactivity data) ([3]; strain FD1): 25.0
- in vitro activity ranking of the individual components [4]: considerably less active
- Minimal Inhibitory Concentration (bioactivity data) [5]: < 0.2
- Minimal Inhibitory Concentration (bioactivity data) [6]: 25.0
- Minimal Inhibitory Concentration (bioactivity data) ([7]; strain 16-4): > 100
- Minimal Inhibitory Concentration (bioactivity data) ([7]; strain B204): > 100
- Minimal Inhibitory Concentration (bioactivity data) [8]: > 100
- Minimal Inhibitory Concentration (bioactivity data) [9]: > 100
- Minimal Inhibitory Concentration (bioactivity data) ([10]; strain 49): 50.0
- Minimal Inhibitory Concentration (bioactivity data) ([10]; strain D1): 25.0
- Minimal Inhibitory Concentration (bioactivity data) ([11]; strain FN4070): 100
- Minimal Inhibitory Concentration (bioactivity data) ([11]; strain FN5052): > 100
- Minimal Inhibitory Concentration (bioactivity data) [12]: 3.1
- Minimal Inhibitory Concentration (bioactivity data) ([13]; strain 71A01): > 100
- Minimal Inhibitory Concentration (bioactivity data) ([13]; strain CCS1-03): > 100
- Minimal Inhibitory Concentration (bioactivity data) ([13]; strain P1051C4): > 100
- Minimal Inhibitory Concentration (bioactivity data) [14]: > 100
- Minimal Inhibitory Concentration (bioactivity data) [15]: > 100
- Minimal Inhibitory Concentration (bioactivity data) [16]: 12.5
- Minimal Inhibitory Concentration (bioactivity data) ([17]; strain A82-1): > 100
- Minimal Inhibitory Concentration (bioactivity data) ([17]; strain A83-3): 0.8
- Minimal Inhibitory Concentration (bioactivity data) ([17]; strain A83-RKP): 1.6
- Minimal Inhibitory Concentration (bioactivity data) ([17]; strain CCS2-09): > 100
- Minimal Inhibitory Concentration (bioactivity data) ([17]; strain P1051C3): 100
- Minimal Inhibitory Concentration (bioactivity data) ([17]; strain P1083C1): 100
- Minimal Inhibitory Concentration (bioactivity data) ([17]; strain RF1B04): 0.8
- Minimal Inhibitory Concentration (bioactivity data) ([17]; strain UC9452): 6.3

Structure (SMILES): C=C(NC(=O)c1ccc2c(n1)-c1nc(oc1C)C(C)NC(=O)c1csc(n1)C(C)NC(=O)c1nc(oc1C)CNC(=O)C(C(C)C)NC(=O)c1csc-2n1)C(N)=O (centres unmarked) [Antibiotic 10381w]
- Minimal Inhibitory Concentration (bioactivity data) [1]: > 100
- Minimal Inhibitory Concentration (bioactivity data) ([2]; strain GA31): 1.6
- Minimal Inhibitory Concentration (bioactivity data) ([2]; strain GA192): 12.5
- Minimal Inhibitory Concentration (bioactivity data) ([3]; strain C94): 100
- Minimal Inhibitory Concentration (bioactivity data) ([3]; strain FD1): > 100
- in vitro activity ranking of the individual components [4]: considerably less active
- Minimal Inhibitory Concentration (bioactivity data) [5]: < 0.2
- Minimal Inhibitory Concentration (bioactivity data) [6]: 25.0
- Minimal Inhibitory Concentration (bioactivity data) ([7]; strain 16-4): > 100
- Minimal Inhibitory Concentration (bioactivity data) ([7]; strain B204): > 100
- Minimal Inhibitory Concentration (bioactivity data) [8]: > 100
- Minimal Inhibitory Concentration (bioactivity data) [9]: > 100
- Minimal Inhibitory Concentration (bioactivity data) ([10]; strain 49): > 100
- Minimal Inhibitory Concentration (bioactivity data) ([10]; strain D1): > 100
- Minimal Inhibitory Concentration (bioactivity data) ([11]; strain FN4070): > 100
- Minimal Inhibitory Concentration (bioactivity data) ([11]; strain FN5052): > 100
- Minimal Inhibitory Concentration (bioactivity data) [12]: > 100
- Minimal Inhibitory Concentration (bioactivity data) ([13]; strain 71A01): > 100
- Minimal Inhibitory Concentration (bioactivity data) ([13]; strain CCS1-03): > 100
- Minimal Inhibitory Concentration (bioactivity data) ([13]; strain P1051C4): > 100
- Minimal Inhibitory Concentration (bioactivity data) [14]: > 100
- Minimal Inhibitory Concentration (bioactivity data) [15]: > 100
- Minimal Inhibitory Concentration (bioactivity data) [16]: 25
- Minimal Inhibitory Concentration (bioactivity data) ([17]; strain A82-1): > 100
- Minimal Inhibitory Concentration (bioactivity data) ([17]; strain A83-3): 12.5
- Minimal Inhibitory Concentration (bioactivity data) ([17]; strain A83-RKP): > 100
- Minimal Inhibitory Concentration (bioactivity data) ([17]; strain CCS2-09): > 100
- Minimal Inhibitory Concentration (bioactivity data) ([17]; strain P1051C3): > 100
- Minimal Inhibitory Concentration (bioactivity data) ([17]; strain P1083C1): > 100
- Minimal Inhibitory Concentration (bioactivity data) ([17]; strain RF1B04): 100
- Minimal Inhibitory Concentration (bioactivity data) ([17]; strain UC9452): > 100

Structure (SMILES): C=C(NC(=O)C(=C)NC(=O)C(=C)NC(=O)c1ccc2c(n1)-c1nc(oc1C)C(C)NC(=O)c1csc(n1)C(C)NC(=O)c1nc(oc1C)CNC(=O)C(C(C)C)NC(=O)c1csc-2n1)C(N)=O (centres unmarked) [Antibiotic 10381x]
- M.I.C. [1, 18]: 50.0 µg/mL
- Minimal Inhibitory Concentration (bioactivity data) [1]: > 100
- M.I.C. ([2]; strain GA31): > 100.0 µg/mL
- Minimal Inhibitory Concentration (bioactivity data) ([2]; strain GA31): 6.3
- M.I.C. ([2]; strain GA192): > 100.0 µg/mL
- Minimal Inhibitory Concentration (bioactivity data) ([2]; strain GA192): 6.3
- M.I.C. ([3]; strain C94): 3.1 µg/mL
- Minimal Inhibitory Concentration (bioactivity data) ([3]; strain C94): > 100
- M.I.C. ([3]; strain FD1): 6.3 µg/mL
- Minimal Inhibitory Concentration (bioactivity data) ([3]; strain FD1): 100
- in vitro activity ranking of the individual components [4]: considerably less active
- M.I.C. [5, 18]: 0.2 µg/mL
- Minimal Inhibitory Concentration (bioactivity data) [5]: 12.5
- Minimal Inhibitory Concentration (bioactivity data) [6]: < 0.2
- Minimal Inhibitory Concentration (bioactivity data) ([7]; strain 16-4): > 100
- Minimal Inhibitory Concentration (bioactivity data) ([7]; strain B204): > 100
- M.I.C. [8, 18]: 25.0 µg/mL
- Minimal Inhibitory Concentration (bioactivity data) [8]: > 100
- M.I.C. [9, 18]: 100.0 µg/mL
- Minimal Inhibitory Concentration (bioactivity data) [9]: > 100
- M.I.C. ([10]; strain 49): 1.6 µg/mL
- Minimal Inhibitory Concentration (bioactivity data) ([10]; strain 49): > 100
- M.I.C. ([10]; strain D1): 3.1 µg/mL
- Minimal Inhibitory Concentration (bioactivity data) ([10]; strain D1): 100
- M.I.C. ([11]; strain FN4070): > 100.0 µg/mL
- Minimal Inhibitory Concentration (bioactivity data) ([11]; strain FN4070): > 100
- M.I.C. ([11]; strain FN5052): > 100.0 µg/mL
- Minimal Inhibitory Concentration (bioactivity data) ([11]; strain FN5052): > 100
- M.I.C. [12, 18]: > 100.0 µg/mL
- Minimal Inhibitory Concentration (bioactivity data) [12]: 25.0
- M.I.C. ([13]; strain 71A01): 100.0 µg/mL
- Minimal Inhibitory Concentration (bioactivity data) ([13]; strain 71A01): > 100
- M.I.C. ([13]; strain CCS1-03): 50.0 µg/mL
- Minimal Inhibitory Concentration (bioactivity data) ([13]; strain CCS1-03): > 100
- M.I.C. ([13]; strain P1051C4): 50.0 µg/mL
- Minimal Inhibitory Concentration (bioactivity data) ([13]; strain P1051C4): > 100
- M.I.C. [14, 18]: 6.3 µg/mL
- Minimal Inhibitory Concentration (bioactivity data) [14]: > 100
- M.I.C. [15, 18]: > 100.0 µg/mL
- Minimal Inhibitory Concentration (bioactivity data) [15]: > 100
- M.I.C. [16, 18]: 3.1 µg/mL
- Minimal Inhibitory Concentration (bioactivity data) [16]: 100
- M.I.C. ([17]; strain 71A02): 6.3 µg/mL
- M.I.C. ([17]; strain A82-1): 50.0 µg/mL
- Minimal Inhibitory Concentration (bioactivity data) ([17]; strain A82-1): > 100
- M.I.C. ([17]; strain A83-3): 6.3 µg/mL
- Minimal Inhibitory Concentration (bioactivity data) ([17]; strain A83-3): 25.0
- M.I.C. ([17]; strain A83-RKP): 1.6 µg/mL
- Minimal Inhibitory Concentration (bioactivity data) ([17]; strain A83-RKP): 50.0
- M.I.C. ([17]; strain CCS1-11): 50.0 µg/mL
- M.I.C. ([17]; strain CCS2-09): 1.6 µg/mL
- Minimal Inhibitory Concentration (bioactivity data) ([17]; strain CCS2-09): 100
- M.I.C. ([17]; strain P1051C3): > 100.0 µg/mL
- Minimal Inhibitory Concentration (bioactivity data) ([17]; strain P1051C3): > 100
- M.I.C. ([17]; strain P1083C1): 1.6 µg/mL
- Minimal Inhibitory Concentration (bioactivity data) ([17]; strain P1083C1): 100
- M.I.C. ([17]; strain RF1B04): 3.1 µg/mL
- Minimal Inhibitory Concentration (bioactivity data) ([17]; strain RF1B04): 50.0
- M.I.C. ([17]; strain UC9452): 6.3 µg/mL
- Minimal Inhibitory Concentration (bioactivity data) ([17]; strain UC9452): 50.0
